Experimental data as given in the supplement of paper PMC10307832.

Assays:
Experiment in all cases: relative viability (nuclei count vs DMSO), 5 days (fraction); higher = more cells survive
NCI-H647 = system: NCI-H647
How it was run: (§1)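 Lung cancer cell lines in 1536-well plates were dosed by pin tool the day after seeding, either with one drug alone or with a fixed anchor-drug dose plus five library-drug doses (not always all listed) in √10 steps. After 5 days, cells were fixed and their nuclei stained in one step (final 0.05% Triton X-100, 1% formaldehyde, 1 ug/ml Hoechst), then counted on 4× images. Relative viability is the nuclei count in treated wells divided by that in vehicle wells. Values are medians of duplicate plates.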

Calu-6 = system: Calu-6
How it was run: as §1

IA-LM = system: IA-LM
How it was run: as §1

A549 = system: A549
How it was run: as §1

NCI-H2009 = system: NCI-H2009
How it was run: as §1

NCI-H1299 = system: NCI-H1299
How it was run: as §1

EBC-1 = system: EBC-1
How it was run: as §1

LOU-NH91 = system: LOU-NH91
How it was run: as §1

NCI-H1703 = system: NCI-H1703
How it was run: as §1

NCI-H2405 = system: NCI-H2405
How it was run: as §1

With `CCNC(=O)c1noc(-c2cc(C(C)C)c(O)cc2O)c1-c1ccc(CN2CCOCC2)cc1` [Luminespib] + C[C@]1(O)C[C@@H](c2nc(-c3ccc4ccc(-c5ccccc5)nc4c3)c3c(N)nccn32)C1 [Linsitinib] (partner 1 µM) the relative viability (NCI-H647; first compound 0.002 µM) was 1.23, the relative viability (NCI-H647; first compound 0.006325 µM) was 1.26 and the relative viability (NCI-H647; first compound 0.02 µM) was 0.914. It also gave a relative viability (NCI-H647; first compound 0.06325 µM) of 0.0924, a relative viability (NCI-H647; first compound 0.2 µM) of 0.0826 and a relative viability (Calu-6; first compound 0.002 µM) of 1.08. For the same molecule, the relative viability (Calu-6; first compound 0.006325 µM) was 0.783, the relative viability (Calu-6; first compound 0.02 µM) was 0.712 and the relative viability (Calu-6; first compound 0.06325 µM) was 0.0985. The relative viability (Calu-6; first compound 0.2 µM) was 0.0978, the relative viability (IA-LM; first compound 0.002 µM) was 0.601 and the relative viability (IA-LM; first compound 0.006325 µM) was 0.424. It also gave a relative viability (IA-LM; first compound 0.02 µM) of 0.284, a relative viability (IA-LM; first compound 0.06325 µM) of 0.0358 and a relative viability (IA-LM; first compound 0.2 µM) of 0.0299. It also gave a relative viability (A549; first compound 0.002 µM) of 0.645, a relative viability (A549; first compound 0.006325 µM) of 0.583 and a relative viability (A549; first compound 0.02 µM) of 0.236. For the same molecule, the relative viability (A549; first compound 0.06325 µM) was 0.14, the relative viability (A549; first compound 0.2 µM) was 0.0621 and the relative viability (NCI-H2009; first compound 0.002 µM) was 1.21. For the same molecule, the relative viability (NCI-H2009; first compound 0.006325 µM) was 1.2, the relative viability (NCI-H2009; first compound 0.02 µM) was 1.21 and the relative viability (NCI-H2009; first compound 0.06325 µM) was 1.13. It also gave a relative viability (NCI-H2009; first compound 0.2 µM) of 0.0697, a relative viability (NCI-H1299; first compound 0.002 µM) of 0.978 and a relative viability (NCI-H1299; first compound 0.006325 µM) of 0.935. For the same molecule, the relative viability (NCI-H1299; first compound 0.02 µM) was 0.989, the relative viability (NCI-H1299; first compound 0.06325 µM) was 0.582 and the relative viability (NCI-H1299; first compound 0.2 µM) was 0.451. The relative viability (EBC-1; first compound 0.002 µM) was 0.919, the relative viability (EBC-1; first compound 0.006325 µM) was 0.89 and the relative viability (EBC-1; first compound 0.02 µM) was 0.273. For the same molecule, the relative viability (EBC-1; first compound 0.06325 µM) was 0.0912, the relative viability (EBC-1; first compound 0.2 µM) was 0.0942 and the relative viability (LOU-NH91; first compound 0.002 µM) was 0.913. It also gave a relative viability (LOU-NH91; first compound 0.006325 µM) of 0.923, a relative viability (LOU-NH91; first compound 0.02 µM) of 0.649 and a relative viability (LOU-NH91; first compound 0.06325 µM) of 0.393. It also gave a relative viability (LOU-NH91; first compound 0.2 µM) of 0.348, a relative viability (NCI-H1703; first compound 0.002 µM) of 1.26 and a relative viability (NCI-H1703; first compound 0.006325 µM) of 0.448. For the same molecule, the relative viability (NCI-H1703; first compound 0.02 µM) was 0.426, the relative viability (NCI-H1703; first compound 0.06325 µM) was 0.0721 and the relative viability (NCI-H1703; first compound 0.2 µM) was 0.123. It also gave a relative viability (NCI-H2405; first compound 0.002 µM) of 1.01, a relative viability (NCI-H2405; first compound 0.006325 µM) of 0.721 and a relative viability (NCI-H2405; first compound 0.02 µM) of 0.613. The relative viability (NCI-H2405; first compound 0.06325 µM) was 0.254 and the relative viability (NCI-H2405; first compound 0.2 µM) was 0.182.

In the case of `Cc1cn(-c2cc(NC(=O)c3ccc(C)c(Nc4nccc(-c5cccnc5)n4)c3)cc(C(F)(F)F)c2)cn1` [Nilotinib] + C[C@]1(O)C[C@@H](c2nc(-c3ccc4ccc(-c5ccccc5)nc4c3)c3c(N)nccn32)C1 [Linsitinib] (partner 1 µM), the relative viability (NCI-H647; first compound 0.001 µM) is reported as 1.13, the relative viability (NCI-H647; first compound 0.003162 µM) is reported as 1.43 and the relative viability (NCI-H647; first compound 0.03162 µM) is reported as 1.07. For the same molecule, the relative viability (NCI-H647; first compound 0.1 µM) was 1.02, the relative viability (Calu-6; first compound 0.001 µM) was 0.819 and the relative viability (Calu-6; first compound 0.003162 µM) was 1.06. The relative viability (Calu-6; first compound 0.01 µM) was 1.06, the relative viability (Calu-6; first compound 0.03162 µM) was 0.809 and the relative viability (Calu-6; first compound 0.1 µM) was 0.828. It also gave a relative viability (IA-LM; first compound 0.001 µM) of 0.382, a relative viability (IA-LM; first compound 0.003162 µM) of 0.31 and a relative viability (IA-LM; first compound 0.01 µM) of 0.634. It also gave a relative viability (IA-LM; first compound 0.03162 µM) of 0.346, a relative viability (IA-LM; first compound 0.1 µM) of 0.216 and a relative viability (A549; first compound 0.001 µM) of 0.778. It also gave a relative viability (A549; first compound 0.003162 µM) of 0.582, a relative viability (A549; first compound 0.01 µM) of 0.767 and a relative viability (A549; first compound 0.03162 µM) of 0.535. The relative viability (A549; first compound 0.1 µM) was 0.286, the relative viability (NCI-H2009; first compound 0.001 µM) was 1.07 and the relative viability (NCI-H2009; first compound 0.003162 µM) was 1.28. The relative viability (NCI-H2009; first compound 0.01 µM) was 1.22, the relative viability (NCI-H2009; first compound 0.03162 µM) was 1.18 and the relative viability (NCI-H2009; first compound 0.1 µM) was 1.15. The relative viability (NCI-H1299; first compound 0.001 µM) was 0.91, the relative viability (NCI-H1299; first compound 0.003162 µM) was 1.1 and the relative viability (NCI-H1299; first compound 0.01 µM) was 1.28. The relative viability (NCI-H1299; first compound 0.03162 µM) was 0.957, the relative viability (NCI-H1299; first compound 0.1 µM) was 0.762 and the relative viability (EBC-1; first compound 0.001 µM) was 0.81. For the same molecule, the relative viability (EBC-1; first compound 0.003162 µM) was 0.794, the relative viability (EBC-1; first compound 0.01 µM) was 1.14 and the relative viability (EBC-1; first compound 0.03162 µM) was 0.791. For the same molecule, the relative viability (EBC-1; first compound 0.1 µM) was 0.66, the relative viability (LOU-NH91; first compound 0.001 µM) was 0.929 and the relative viability (LOU-NH91; first compound 0.003162 µM) was 1.01. It also gave a relative viability (LOU-NH91; first compound 0.01 µM) of 0.976, a relative viability (LOU-NH91; first compound 0.03162 µM) of 0.926 and a relative viability (LOU-NH91; first compound 0.1 µM) of 0.917. The relative viability (NCI-H1703; first compound 0.001 µM) was 0.637, the relative viability (NCI-H1703; first compound 0.003162 µM) was 0.285 and the relative viability (NCI-H1703; first compound 0.01 µM) was 0.343. The relative viability (NCI-H1703; first compound 0.03162 µM) was 0.218, the relative viability (NCI-H1703; first compound 0.1 µM) was 0.136 and the relative viability (NCI-H2405; first compound 0.001 µM) was 0.976. For the same molecule, the relative viability (NCI-H2405; first compound 0.003162 µM) was 0.916, the relative viability (NCI-H2405; first compound 0.01 µM) was 0.838 and the relative viability (NCI-H2405; first compound 0.03162 µM) was 0.789. For the same molecule, the relative viability (NCI-H2405; first compound 0.1 µM) was 0.74.

In the case of `CN1CCN(CCOc2cc(OC3CCOCC3)c3c(Nc4c(Cl)ccc5c4OCO5)ncnc3c2)CC1` [Saracatinib] + CC1(C)CCC(c2ccc(Cl)cc2)=C(CN2CCN(c3ccc(C(=O)NS(=O)(=O)c4ccc(N[C@H](CCN5CCOCC5)CSc5ccccc5)c(S(=O)(=O)C(F)(F)F)c4)cc3)CC2)C1 [Navitoclax] (partner 0.5 µM), the relative viability (NCI-H647; first compound 0.02 µM) is reported as 1.15, the relative viability (NCI-H647; first compound 0.2 µM) is reported as 0.959 and the relative viability (NCI-H647; first compound 0.6325 µM) is reported as 1.18. For the same molecule, the relative viability (NCI-H647; first compound 2 µM) was 0.764, the relative viability (Calu-6; first compound 0.02 µM) was 0.914 and the relative viability (Calu-6; first compound 0.2 µM) was 0.746. For the same molecule, the relative viability (Calu-6; first compound 0.6325 µM) was 0.731, the relative viability (Calu-6; first compound 2 µM) was 0.562 and the relative viability (IA-LM; first compound 0.02 µM) was 0.865. The relative viability (IA-LM; first compound 0.6325 µM) was 1.45, the relative viability (IA-LM; first compound 2 µM) was 1 and the relative viability (A549; first compound 0.02 µM) was 1.42. It also gave a relative viability (A549; first compound 0.2 µM) of 0.903, a relative viability (A549; first compound 0.6325 µM) of 1.39 and a relative viability (A549; first compound 2 µM) of 1.38. The relative viability (NCI-H2009; first compound 0.02 µM) was 1.15, the relative viability (NCI-H2009; first compound 0.2 µM) was 1.07 and the relative viability (NCI-H2009; first compound 0.6325 µM) was 1.15. For the same molecule, the relative viability (NCI-H2009; first compound 2 µM) was 1.16, the relative viability (NCI-H1299; first compound 0.02 µM) was 1.01 and the relative viability (NCI-H1299; first compound 0.2 µM) was 1.06. The relative viability (NCI-H1299; first compound 0.6325 µM) was 1.04, the relative viability (NCI-H1299; first compound 2 µM) was 1.04 and the relative viability (EBC-1; first compound 0.02 µM) was 0.542. For the same molecule, the relative viability (EBC-1; first compound 0.2 µM) was 0.408, the relative viability (EBC-1; first compound 0.6325 µM) was 0.393 and the relative viability (EBC-1; first compound 2 µM) was 0.43. It also gave a relative viability (LOU-NH91; first compound 0.02 µM) of 0.678, a relative viability (LOU-NH91; first compound 0.2 µM) of 0.418 and a relative viability (LOU-NH91; first compound 0.6325 µM) of 0.405. For the same molecule, the relative viability (LOU-NH91; first compound 2 µM) was 0.361, the relative viability (NCI-H1703; first compound 0.02 µM) was 1.09 and the relative viability (NCI-H1703; first compound 0.2 µM) was 0.904. It also gave a relative viability (NCI-H1703; first compound 0.6325 µM) of 0.43, a relative viability (NCI-H1703; first compound 2 µM) of 0.269 and a relative viability (NCI-H2405; first compound 0.02 µM) of 0.816. The relative viability (NCI-H2405; first compound 0.2 µM) was 0.874, the relative viability (NCI-H2405; first compound 0.6325 µM) was 0.401 and the relative viability (NCI-H2405; first compound 2 µM) was 0.316.
